Laboratory results published in patent US7285621B2, “Multiple branch peptide construction” (Ambrilia Biopharma, priority 1999, dated 2007).
Read-outs that look alike come from different tables or passages of the source.

Legend:
[1] = test system: HIV-1NL4-3; test: HIV-1NL4-3 infection of C8166 cells (syncytia formation, p24 ELISA); type: cell-based; design: key to Syncytium formation: ++: number of syncytia present in the well were similar to that in control untreated well (35 to 40 syncitia per well); −: total absence of syncitia in the well; ±: presence of 1 to 3 syncitia in the well; settings: for Syncytium formation / P24: C8166 cells; for inhibition of syncytium formation and p24 production of HIV-infected cells: 5 μM; for HIV inhibition characteristics: Table 3, C8166 cells
Experimental: C8188 cells were infected with HIV to establish a baseline control. Similar C8188 cells were pretreated the invented MBPCs and then subjected to HIV to determine inhibition rates. The results are illustrated in FIGS. 1A, 1B and 2.
Samples of 3×10^5 C8166 cells were placed in 96-well plates in a volume of 100 μl of culture medium containing various concentrations of peptide. After a one hour treatment at 37° C., 100 μl of viral solution of HIV-1NL4-3 were added. The cells were exposed to the virus of one hour at 37° C. at a multiplicity of infection of 1,000 TCID50 per ml. After through washing, cells were replaced in 1 ml of R10 with the treatment in 24-well plates and cultured in a 37° C. incubator. C8166 culture medium was replaced at day-4 post-infection. During this assay, treatment with peptide was permanent (before, during and after infection). Assays on C8166 cells have been performed at least twice and in duplicate. Toxicity was evaluated by daily cell count and trypan-blue exclusion assay. Infection of C8166 T-Cells with HIV-1NL4-3 was assessed by virus-induced cytopathic effect (syncytia formation) and by quantification of p24 viral protein in the culture supernatants. Measurements of HIV-1 p24^gag concentrations in the culture supernatants were achieved by ELISA, with a detection cut-off of 5 pg/ml (p24 HIV kit, NEN Dupont, Belgium; Quanti-Kine software, RILAB, Genova, Italy).

[2] = test system: C57/BL6 and Balb-C mice; test: Intra-cerebroventricular injection toxicity in mice; type: in vivo; settings: 3×10^−3 M, 100 μg of peptide per 20 g mouse
[3] = test system: H × 10 (HIV-1) strain
Experimental: SPC3 is (GPGRAF)8-(K)4-(K)2-K-βA-OH as disclosed in WO95/07929. D4 and D5 refer to days 4 and 5 of the experiment. OD stands for Optical Density. N.B. Experiments were performed with non diluted virus solution.

[4] = test system: HIV-1NL4-3; test: HIV-1NL4-3 infection of human PBLs/PBMCs (p24 ELISA); type: cell-based
Experimental: Human peripheral blood lymphocytes (PBLs) obtained from healthy HIV-seronegative donor (Etablissement Francais du Sang, Marseille, France) were isolated by ficoll-Hypaque gradient centrifugation. Cells were cultured in R10 medium supplemented with 20 units/ml of interleukin-2 (IL-2, Proleukin, Chiron, The Netherlands). R10 medium consists of RPMI 1640 supplemented with 2 mM ultraglutamine (BioWhittaker, Vervires, Belgium), penicillin (100 units/ml), streptomycin (100 μg/ml), and 10% heat-inactivated fetal calf serum (BioWhittaker). Cells were first stimulated with phytohemaggiutinin (20 μg/ml)-supplemented R10 (PHA P, DIFCO, Detroit, Mich., USA) for three days. Then, the medium was replaced with R10 supplemented with IL2 (20 units/ml), and subsequently cultures and experiments were carried out in this medium in a 37° C. humidified incubator with 5% CO2.
Samples of 10^6 human PBLs were placed in 96-well plates in 100 μl of R10 containing various concentrations of peptide. After one hour treatment of 37° C., 100 μl of viral solution of HIV-1NL4-3 were added. The cells were exposed to the virus for one hour at 37° C. flushed with 5% CO2. The PBL culture medium was replaced every 3-4 days. The cell viability was assessed by cell counts and trypan-blue exclusion assay. The viral production in the culture supernatant was quantified by p24 ELISA test, as described supra. […]

[5] = test system: HIV-1 and HIV-2 viruses; test: In vitro inhibition of HIV-induced syncytium formation and infection of human lymphocytes; type: cell-based; settings: HIV-1 and HIV-2 laboratory strains and clinical isolates
[6] = test system: HIV-1 W5A2A9 isolate; test: Inhibition of clinical isolates infectivity; type: cell-based; settings: non-diluted virus solution
Excerpt: The gp41-derived MBPCs of the invention have been tested in vitro for their ability to inhibit HIV-induced syncytium formation, and infection of human lymphocytes by both HIV-1 and HIV-2 viruses (several laboratory strains including LAV-2B, an HIV-2 virus able to infect some CD4^−/GalCer^− cells, as well as clinical isolates such as JRCSF, P16/B6 and P16/C9). […] Similar results were obtained with other HIV strains and clinical isolates tested so far.
Example shown is the HIV-1 W5A2A9 isolate. N.B. Experiments were performed with non-diluted virus solution.

[7] = Molarity 1 × 10^−5, day 4, non diluted virus solution
[8] = Molarity 1 × 10^−6, day 4, non diluted virus solution
[9] = Molarity 5 × 10^−5, day 4, non diluted virus solution
[10] = Molarity 5 × 10^−5, day 5, non diluted virus solution
[11] = Molarity 5 × 10^−6, day 4, non diluted virus solution

(SPL)2-K-βA [Peptide 8]
Syncytium formation ([1]; peptide 1 μm): ++ (number of syncytia present in the well were similar to that in control untreated well (35 to 40 syncitia per well)) | Syncytium formation ([1]; peptide 10 μm): ± (presence of 1 to 3 syncitia in the well)

(RQGY)2-K-βA [Peptide 3]
Syncytium formation ([1]; peptide 1 μm): ± (presence of 1 to 3 syncitia in the well) | Syncytium formation ([1]; peptide 10 μm): ± (presence of 1 to 3 syncitia in the well)

CC(C)C[C@H](NC(=O)[C@@H]1CCCN1C(=O)[C@H](CO)NC(=O)[C@H](Cc1ccc(O)cc1)NC(=O)CNC(=O)[C@H](CCC(N)=O)NC(=O)[C@@H](N)CCCNC(=N)N)C(=O)NCCCC[C@H](NC(=O)[C@H](CC(C)C)NC(=O)[C@@H]1CCCN1C(=O)[C@H](CO)NC(=O)[C@H](Cc1ccc(O)cc1)NC(=O)CNC(=O)[C@H](CCC(N)=O)NC(=O)[C@@H](N)CCCNC(=N)N)C(=O)NCCCC[C@H](NC(=O)[C@H](CCCCNC(=O)[C@H](CC(C)C)NC(=O)[C@@H]1CCCN1C(=O)[C@H](CO)NC(=O)[C@H](Cc1ccc(O)cc1)NC(=O)CNC(=O)[C@H](CCC(N)=O)NC(=O)[C@@H](N)CCCNC(=N)N)NC(=O)[C@H](CC(C)C)NC(=O)[C@@H]1CCCN1C(=O)[C@H](CO)NC(=O)[C@H](Cc1ccc(O)cc1)NC(=O)CNC(=O)[C@H](CCC(N)=O)NC(=O)[C@@H](N)CCCNC(=N)N)C(=O)NCCCC[C@H](NC(=O)[C@H](CCCCNC(=O)[C@H](CCCCNC(=O)[C@H](CC(C)C)NC(=O)[C@@H]1CCCN1C(=O)[C@H](CO)NC(=O)[C@H](Cc1ccc(O)cc1)NC(=O)CNC(=O)[C@H](CCC(N)=O)NC(=O)[C@@H](N)CCCNC(=N)N)NC(=O)[C@H](CC(C)C)NC(=O)[C@@H]1CCCN1C(=O)[C@H](CO)NC(=O)[C@H](Cc1ccc(O)cc1)NC(=O)CNC(=O)[C@H](CCC(N)=O)NC(=O)[C@@H](N)CCCNC(=N)N)NC(=O)[C@H](CCCCNC(=O)[C@H](CC(C)C)NC(=O)[C@@H]1CCCN1C(=O)[C@H](CO)NC(=O)[C@H](Cc1ccc(O)cc1)NC(=O)CNC(=O)[C@H](CCC(N)=O)NC(=O)[C@@H](N)CCCNC(=N)N)NC(=O)[C@H](CC(C)C)NC(=O)[C@@H]1CCCN1C(=O)[C@H](CO)NC(=O)[C@H](Cc1ccc(O)cc1)NC(=O)CNC(=O)[C@H](CCC(N)=O)NC(=O)[C@@H](N)CCCNC(=N)N)C(=O)NCCC(=O)O [RL1, (RQGYSPL)8-(K)4-(K)2-K-βA-OH]
cellular toxicity and lethal activity [2]: neither cellular toxicity nor lethal activity | Inhibition [3, 7]: 79.82% | Inhibition [3, 8]: 31.29% | Inhibition [3, 9]: 99.09% | Inhibition [3, 10]: 99.75% | Inhibition [3, 11]: 61.45%

(LPSYGQR)8-K4-K2—K-βA
inhibition of syncytium formation and p24 production of HIV-infected cells [1]: 100%

(YSPL)2-K-βA [Peptide 7]
Syncytium formation ([1]; peptide 1 μm): ± (presence of 1 to 3 syncitia in the well) | Syncytium formation ([1]; peptide 10 μm): ± (presence of 1 to 3 syncitia in the well)

(RQG)2-K-βA [Peptide 4]
Syncytium formation ([1]; peptide 1 μm): ± (presence of 1 to 3 syncitia in the well) | Syncytium formation ([1]; peptide 10 μm): −

(D-LPSYGQR)8-K4-K2-K-βA
inhibition of HIV infection of PBMCs ([4]; at a concentration of 1 μM): totally inhibit | inhibition of HIV infection of C8166 cells ([1]; at a concentration of 1 μM): totally inhibit

(KQGYSPL)2-K-βA [Peptide 10]
Syncytium formation ([1]; peptide 1 μm): ++ (number of syncytia present in the well were similar to that in control untreated well (35 to 40 syncitia per well)) | Syncytium formation ([1]; peptide 10 μm): ++ (number of syncytia present in the well were similar to that in control untreated well (35 to 40 syncitia per well))

(RQGYS)2-K-βA-OH [Peptide 2]
HIV inhibition characteristics [1]: superior HIV inhibition characteristics | P24 ([1]; peptide 1 μm): 0 pg/mL | Syncytium formation ([1]; peptide 1 μm): − | P24 ([1]; peptide 10 μm): 0 pg/mL | Syncytium formation ([1]; peptide 10 μm): −

(RQGYSP)2-K-βA [Peptide 1]
Syncytium formation ([1]; peptide 10 μm): −

RQGYSPL [monomeric RQGYSPL]
antiviral properties (HIV-induced syncytium formation, infection of human lymphocytes) [5]: inactive

Cc1cn([C@H]2C[C@H](N=[N+]=[N-])[C@@H](CO)O2)c(=O)[nH]c1=O [AZT, reference compound]
P24 ([1]; peptide 1 μm): 0 pg/mL | Syncytium formation ([1]; peptide 1 μm): − | P24 ([1]; peptide 10 μm): 0 pg/mL | Syncytium formation ([1]; peptide 10 μm): −

(GYSPL)2-K-βA [Peptide 6]
Syncytium formation ([1]; peptide 1 μm): ± (presence of 1 to 3 syncitia in the well) | Syncytium formation ([1]; peptide 10 μm): ± (presence of 1 to 3 syncitia in the well)

(RQGY)8-(K)4-(K)2-K-βA-OH [(RQGY)8-K4-K2-K-βA]
inhibition of syncytium formation and p24 production of HIV-infected cells [1]: 100%

(RQGYSPL)2-K-βA [Peptide 11]
inhibition of HIV-1NL403 infected PBMCs ([4]; 0.1 μM, FIG. 2): 100% | viral activity relative to controls ([1]; 0.1 micro-molar (μm), FIG. 1, C8166 cells): one tenth that seen in controls | viral activity ([1]; 5 μm, FIG. 1, C8166 cells): virtually no activity | viral activity ([1]; 10 μm, FIG. 1, C8166 cells): no viral activity | inhibition of syncytium formation and p24 production ([1]; HIV-1NL403 infected C8166 cells, FIG. 1): marked inhibition | HIV inhibition characteristics [1]: superior HIV inhibition characteristics | P24 ([1]; peptide 1 μm): 0 pg/mL | Syncytium formation ([1]; peptide 1 μm): − | P24 ([1]; peptide 10 μm): 0 pg/mL | Syncytium formation ([1]; peptide 10 μm): −

(GPGRAF)8-(K)4-(K)2-K-βA-OH [SPC3]
Inhibition (%) of clinical isolates infectivity ([6]; [conc] 1 × 10^−5, HIV-1 W5A2A9 isolate): 85.7% | Inhibition (%) of clinical isolates infectivity ([6]; [conc] 1 × 10^−6, HIV-1 W5A2A9 isolate): 28.6% | Inhibition (%) of clinical isolates infectivity ([6]; [conc] 1 × 10^−7, HIV-1 W5A2A9 isolate): 0% | Inhibition (%) of clinical isolates infectivity ([6]; [conc] 5 × 10^−6, HIV-1 W5A2A9 isolate): 50.0% | Inhibition (%) of clinical isolates infectivity ([6]; [conc] 5 × 10^−7, HIV-1 W5A2A9 isolate): 0% | Inhibition (%) of clinical isolates infectivity ([6]; [conc] 5 × 10^−8, HIV-1 W5A2A9 isolate): 0% | Inhibition [3, 7]: 89.13% | p24 [3, 7]: 0.4865 ng/mL | Inhibition [3, 8]: 0% | p24 [3, 8]: 4.786 ng/mL | Inhibition [3, 9]: 98.89% | p24 [3, 9]: 0.05556 ng/mL | Inhibition [3, 10]: 98.47% | p24 [3, 10]: 0.09351 ng/mL | Inhibition [3, 11]: 50.78% | p24 [3, 11]: 2.216 ng/mL

(QGYSPL)2-K-βA [Peptide 5]
Syncytium formation ([1]; peptide 1 μm): ± (presence of 1 to 3 syncitia in the well) | Syncytium formation ([1]; peptide 10 μm): −

(D RQGYSPL)2-K-βA [Peptide 9]
Syncytium formation ([1]; peptide 1 μm): ++ (number of syncytia present in the well were similar to that in control untreated well (35 to 40 syncitia per well)) | Syncytium formation ([1]; peptide 10 μm): ++ (number of syncytia present in the well were similar to that in control untreated well (35 to 40 syncitia per well))

(AcRQGYSPL)2-K-βA [Peptide 12]
Syncytium formation ([1]; peptide 1 μm): ++ (number of syncytia present in the well were similar to that in control untreated well (35 to 40 syncitia per well)) | Syncytium formation ([1]; peptide 10 μm): ++ (number of syncytia present in the well were similar to that in control untreated well (35 to 40 syncitia per well))
